# Assay results as given in patent publication US20240261333A1, “NOVEL TARGETS FOR ENHANCING ANTI-TUMOR IMMUNITY” (THE BROAD INSTITUTE, INC., priority 2021, published 2024).
# Columns and labels:
# [1] = tested on: SW1417 (HER2+) colorectal adenocarcinoma cells; assay: T cell cytotoxicity assay, SW1417 against HER2 CAR T cells; type: cell-based, human; conditions: SW1417 treated with small molecule inhibitor
# Procedure: (§1) Expanded T cells were thawed and maintained in culture media for 8-10 h before incubation with cancer cells. Cancer cells were seeded in 96-well plates and allowed to attach for 3-4 h before T cells were added at the appropriate effector to target cell (E:T) ratio. Paired controls with no T cells added were included for each condition. After 18 h, cancer cells were washed twice with PBS to remove T cells, passaged, and cultured for 2 days. Primary patient-derived cell models were not passaged after T cell co-culture. Viability was measured using CellTiter-Glo (Promega G7571). For each E:T ratio, percent survival was calculated as viability of the cells incubated with T cells divided by viability of the paired control that was not incubated with T cells. For example, CD274-overexpressing melanoma cells that were co-cultured with ESO T cells were compared to CD274-overexpressing melanoma cells that were cultured without T cells in parallel. As an alternative cytotoxicity assay, A375 cells stably expressing Gaussia luciferase were co-cultured with ESO T cells. At each time point, 10% of cell culture media was used for the Gaussia luciferase assay (Targeting Systems GAR-2B) to directly measure cytotoxicity. […]
# [2] = tested on: ESO T cells co-cultured with A375 cells; assay: IFNγ ELISA in culture media of the T cell cytotoxicity assay; type: cell-based, human; conditions: B3GNT2-overexpressing A375 pretreated with inhibitor, E:T ratio of 3; kifunensine having a stronger effect
# Procedure: Expanded T cells were thawed and maintained in culture media for 8-10 h before incubation with cancer cells. Cancer cells were seeded in 96-well plates and allowed to attach for 3-4 h before T cells were added at the appropriate effector to target cell (E:T) ratio. Paired controls with no T cells added were included for each condition. After 18 h, cancer cells were washed twice with PBS to remove T cells, passaged, and cultured for 2 days. Primary patient-derived cell models were not passaged after T cell co-culture. Viability was measured using CellTiter-Glo (Promega G7571). For each E:T ratio, percent survival was calculated as viability of the cells incubated with T cells divided by viability of the paired control that was not incubated with T cells. […]
# To challenge cells with cytokines, cells were incubated with Interferon-γ (IFNγ; Cell Signaling Technology 80385S), FasL (AdipoGen AG-40B-0130-3010), TRAIL (R&D Systems 375-TL-010), or TNF-α (AdipoGen AG-40B-0019-3010) for 24 h. […] Cell viability was measured using CellTiter-Glo (Promega G7571) and protein was harvested for Western blots. […] IFNγ in the cell culture media of the T cell cytotoxic assay was quantified using an ELISA kit (Thermo Fisher Scientific KHC4021). […]
# [3] = tested on: A375 (NY-ESO-1+, HLA-A2+) melanoma cells; assay: T cell cytotoxicity assay (CellTiter-Glo), A375 against ESO T cells; type: cell-based, human
# Procedure: Expanded T cells were thawed and maintained in culture media for 8-10 h before incubation with cancer cells. Cancer cells were seeded in 96-well plates and allowed to attach for 3-4 h before T cells were added at the appropriate effector to target cell (E:T) ratio. Paired controls with no T cells added were included for each condition. After 18 h, cancer cells were washed twice with PBS to remove T cells, passaged, and cultured for 2 days. Primary patient-derived cell models were not passaged after T cell co-culture. Viability was measured using CellTiter-Glo (Promega G7571). For each E:T ratio, percent survival was calculated as viability of the cells incubated with T cells divided by viability of the paired control that was not incubated with T cells. For example, CD274-overexpressing melanoma cells that were co-cultured with ESO T cells were compared to CD274-overexpressing melanoma cells that were cultured without T cells in parallel. As an alternative cytotoxicity assay, A375 cells stably expressing Gaussia luciferase were co-cultured with ESO T cells. At each time point, 10% of cell culture media was used for the Gaussia luciferase assay (Targeting Systems GAR-2B) to directly measure cytotoxicity.
# For glycosylation inhibition, cells were treated with 20 μg/mL Kifunensine (Cayman Chemical 10009437) or 2 mM Benzyl 2-acetamido-2-deoxy-alpha-D-galactopyranoside (BAG; Millipore Sigma B4894-100MG) for 48 h to inhibit N- and O-glycosylation respectively unless otherwise indicated. For MCL1 inhibition, cells were treated with 1-10 μM of S63845 (Selleck Chemicals S8383) or AZD5991 (Selleck Chemicals S8643) for 4 h before incubation with T cells. Both glycosylation and MCL1 inhibitors were maintained at indicated concentrations during co-culture with T cells.
# [4] = tested on: CCLF_PANC_0014_T primary patient-derived pancreatic adenocarcinoma; assay: T cell cytotoxicity assay, primary patient-derived pancreatic adenocarcinoma against HER2 CAR T cells; type: cell-based, human; conditions: CCLF_PANC_0014_T treated with small molecule inhibitor
# Procedure: as §1
# [5] = molecular target: T1, human endoplasmic reticulum a-1,2-mannosidase I (Homo sapiens, UniProt Q9UKM7); conditions: human enzyme; cited from earlier work
# T1 sequence (Q9UKM7 1-699): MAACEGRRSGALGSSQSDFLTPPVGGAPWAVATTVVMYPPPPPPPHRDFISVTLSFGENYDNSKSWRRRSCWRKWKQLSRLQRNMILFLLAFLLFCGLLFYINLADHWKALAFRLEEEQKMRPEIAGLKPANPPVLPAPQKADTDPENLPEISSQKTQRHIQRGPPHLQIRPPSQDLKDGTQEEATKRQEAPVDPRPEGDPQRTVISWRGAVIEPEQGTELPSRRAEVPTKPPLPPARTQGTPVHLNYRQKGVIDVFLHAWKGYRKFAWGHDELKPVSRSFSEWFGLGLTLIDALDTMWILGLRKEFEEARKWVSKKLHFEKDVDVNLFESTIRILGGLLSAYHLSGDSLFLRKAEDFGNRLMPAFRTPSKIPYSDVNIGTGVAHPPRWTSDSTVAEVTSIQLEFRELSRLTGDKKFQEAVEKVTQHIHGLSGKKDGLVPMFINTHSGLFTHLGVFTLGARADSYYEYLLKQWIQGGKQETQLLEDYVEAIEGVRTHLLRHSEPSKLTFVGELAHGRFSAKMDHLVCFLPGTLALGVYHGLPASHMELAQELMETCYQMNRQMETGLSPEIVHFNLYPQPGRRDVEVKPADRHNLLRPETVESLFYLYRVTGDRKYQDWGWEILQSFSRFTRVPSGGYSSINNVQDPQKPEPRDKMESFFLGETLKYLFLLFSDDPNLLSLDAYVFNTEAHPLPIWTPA
compound,measurement,setting,value
O=C1N[C@@H]2[C@@H](O)[C@@H](O)[C@H](O)[C@@H](CO)N2C1=O [kifunensine],"Cell survival against T cell cytotoxicity, SW1417",[1],reduced survival
same,T cell IFNγ secretion,[2],increased T cell IFNγ secretion
same,"Cell survival against T cell cytotoxicity, A375",[3]; A375 treated with small molecule inhibitor,reduced survival
same,Cell survival against T cell cytotoxicity,"[3]; B3GNT2-overexpressing A375 pretreated with inhibitor, E:T ratio of 3, kifunensine having a stronger effect",reduced A375 survival
same,"Cell survival against T cell cytotoxicity, primary patient-derived pancreatic adenocarcinoma model",[4],reduced survival
same,Ki,[5],130 nM
